Literature values, collected in patent US8470873B2, “Vitamin E succinate stabilized pharmaceutical compositions, methods for the preparation and the use thereof” (Mast Therapeutics, Inc., priority 2006, dated 2013).

Assays:
[1] = hydrolysis

| solubility in water | stability in the presence of water [1] | SMILES |
| --- | --- | --- |
| insoluble |  | CC(=O)O[C@H]1C(=O)[C@@]2(C)[C@H]([C@H](OC(=O)c3ccccc3)[C@]3(O)C[C@H](OC(=O)[C@H](O)[C@@H](NC(=O)c4ccccc4)c4ccccc4)C(C)=C1C3(C)C)[C@]1(OC(C)=O)CO[C@@H]1C[C@@H]2O [paclitaxel] |
|  | very unstable | CC(=O)O[C@@]12CO[C@@H]1C[C@H](O)[C@@]1(C)C(=O)[C@H](O)C3=C(C)[C@@H](OC(=O)[C@H](O)[C@@H](NC(=O)OC(C)(C)C)c4ccccc4)C[C@@](O)([C@@H](OC(=O)c4ccccc4)[C@H]21)C3(C)C [Docetaxel, (2R,3S)-N-carboxy-3-phenylisoserine,N-tert-butyl ester, 13-ester with 5β-20-epoxy-1,2α-,4,7β,10β,13α-hexahydroxytax-11-en-9-one 4-acetate 2-benzoate, trihydrate] |
